{
  "source": "patent US20240238426A1",
  "about": "“PROTEIN ACYLATION MODULATION BY HETEROBIFUNCTIONAL MOLECULES” (THE SCRIPPS RESEARCH INSTITUTE, priority 2021, published 2024)",
  "format_in_all_cases": "cell-based",
  "key": {"H3.3-FKBP12^F36V [1]": {"biological_target": "T1, H3.3-FKBP12^F36V (Homo sapiens, UniProt P62942+Q09472, F37V)", "T1 construct": "expressed in transfected cells", "T1 sequence (P62942 2-108 F37V limits assumed)": "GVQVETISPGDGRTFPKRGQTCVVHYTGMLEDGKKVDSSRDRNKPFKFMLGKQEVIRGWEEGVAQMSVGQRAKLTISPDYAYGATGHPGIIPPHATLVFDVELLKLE", "T1 sequence (Q09472 2-2414 limits assumed, stated change not applied)": "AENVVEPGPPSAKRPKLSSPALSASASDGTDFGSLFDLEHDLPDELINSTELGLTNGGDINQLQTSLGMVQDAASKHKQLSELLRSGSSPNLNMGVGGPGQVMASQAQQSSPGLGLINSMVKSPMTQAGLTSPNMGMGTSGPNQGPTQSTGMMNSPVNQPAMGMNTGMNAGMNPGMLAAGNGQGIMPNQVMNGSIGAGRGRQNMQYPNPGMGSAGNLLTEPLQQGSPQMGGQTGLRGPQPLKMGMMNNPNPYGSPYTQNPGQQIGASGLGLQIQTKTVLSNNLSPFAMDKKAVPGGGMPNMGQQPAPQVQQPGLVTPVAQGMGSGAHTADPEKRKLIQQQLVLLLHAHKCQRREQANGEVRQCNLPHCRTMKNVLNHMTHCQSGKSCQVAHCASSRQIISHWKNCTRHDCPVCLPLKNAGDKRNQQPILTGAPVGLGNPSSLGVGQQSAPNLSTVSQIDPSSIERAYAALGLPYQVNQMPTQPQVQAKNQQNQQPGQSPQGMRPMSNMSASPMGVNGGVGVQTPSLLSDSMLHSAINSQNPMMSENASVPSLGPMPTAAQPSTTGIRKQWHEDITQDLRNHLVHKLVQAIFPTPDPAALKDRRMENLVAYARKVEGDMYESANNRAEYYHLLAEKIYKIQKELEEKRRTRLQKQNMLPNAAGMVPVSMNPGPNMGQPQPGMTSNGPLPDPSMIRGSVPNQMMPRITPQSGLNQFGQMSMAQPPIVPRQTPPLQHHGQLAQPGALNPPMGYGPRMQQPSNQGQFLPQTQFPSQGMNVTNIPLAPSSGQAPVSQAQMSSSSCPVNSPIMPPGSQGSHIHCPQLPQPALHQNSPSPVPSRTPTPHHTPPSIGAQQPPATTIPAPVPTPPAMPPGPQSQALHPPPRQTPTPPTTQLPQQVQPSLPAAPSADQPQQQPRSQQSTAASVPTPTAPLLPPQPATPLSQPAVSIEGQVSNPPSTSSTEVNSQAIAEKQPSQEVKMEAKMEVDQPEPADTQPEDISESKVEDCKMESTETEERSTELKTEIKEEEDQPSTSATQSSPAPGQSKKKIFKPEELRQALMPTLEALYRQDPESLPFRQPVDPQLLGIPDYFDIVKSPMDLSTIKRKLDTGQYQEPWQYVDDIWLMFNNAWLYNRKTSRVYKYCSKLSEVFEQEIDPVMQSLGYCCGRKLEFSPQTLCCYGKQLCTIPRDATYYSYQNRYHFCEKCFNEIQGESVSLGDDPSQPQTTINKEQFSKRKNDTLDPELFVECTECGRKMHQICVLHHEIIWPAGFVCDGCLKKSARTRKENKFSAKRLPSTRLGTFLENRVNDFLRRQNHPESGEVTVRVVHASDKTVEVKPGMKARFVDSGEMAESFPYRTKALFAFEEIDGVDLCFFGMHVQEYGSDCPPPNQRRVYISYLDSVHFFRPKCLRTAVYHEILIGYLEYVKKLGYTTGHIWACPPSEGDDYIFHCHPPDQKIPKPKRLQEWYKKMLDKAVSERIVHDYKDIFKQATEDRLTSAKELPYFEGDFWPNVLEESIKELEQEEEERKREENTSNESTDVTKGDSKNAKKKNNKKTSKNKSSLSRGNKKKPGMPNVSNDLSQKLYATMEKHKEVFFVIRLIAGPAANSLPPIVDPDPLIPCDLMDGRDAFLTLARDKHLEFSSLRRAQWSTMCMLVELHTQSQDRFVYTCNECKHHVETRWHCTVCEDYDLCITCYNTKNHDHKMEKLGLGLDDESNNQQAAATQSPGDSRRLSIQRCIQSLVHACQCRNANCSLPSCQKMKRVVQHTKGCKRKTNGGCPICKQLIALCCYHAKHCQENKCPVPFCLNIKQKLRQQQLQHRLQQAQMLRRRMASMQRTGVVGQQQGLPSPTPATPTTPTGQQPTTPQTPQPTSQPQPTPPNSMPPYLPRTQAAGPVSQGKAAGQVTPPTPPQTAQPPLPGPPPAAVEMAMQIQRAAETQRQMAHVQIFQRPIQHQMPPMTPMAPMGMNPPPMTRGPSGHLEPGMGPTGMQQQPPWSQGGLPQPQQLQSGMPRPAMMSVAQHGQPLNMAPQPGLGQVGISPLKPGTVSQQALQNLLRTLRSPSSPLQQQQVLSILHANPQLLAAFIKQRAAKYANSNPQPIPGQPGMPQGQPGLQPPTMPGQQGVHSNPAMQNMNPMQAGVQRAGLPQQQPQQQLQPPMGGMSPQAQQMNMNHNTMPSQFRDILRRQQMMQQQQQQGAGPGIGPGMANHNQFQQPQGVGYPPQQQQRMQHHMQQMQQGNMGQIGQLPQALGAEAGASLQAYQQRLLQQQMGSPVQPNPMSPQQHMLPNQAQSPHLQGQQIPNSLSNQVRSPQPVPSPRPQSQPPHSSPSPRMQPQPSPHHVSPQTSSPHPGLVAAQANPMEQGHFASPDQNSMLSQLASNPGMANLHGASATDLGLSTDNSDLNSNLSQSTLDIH", "assay": "Immunoblot analysis of H3.3-FKBP12^F36V acetylation in HeLa cells", "experimental": "(§1) Lentivirus Production and Transduction: Lentiviral production was performed using HEK293T cells, which were co-transfected with pMD2.G (Addgene, #12259), psPAX2 (Addgene, #12260), and AceTAG lentiviral plasmids using PEI (Polysciences Inc). Viral particles were collected 72 h after transfection and filtered through a […] membrane. A range of dilutions of the lentivirus in DMEM complete and 10 μg/mL polybrene were added to HeLa, H1299, or HeLa RelA KO cell lines. Transduced cells were selected with 1 μg/mL or 2 μg/mL puromycin.\n(§2) Immunoblotting: Cells were harvested in cold DPBS by scraping and washed with cold DPBS twice. Cell pellets were resuspended in DPBS supplemented with 5 mM sodium butyrate, 20 mM Nicotinamide, and 1X Halt Protease Inhibitor Cocktail and lysed by sonication (15 ms on, 40 ms off, 15% amplitude, 1s total on x 3). Protein concentration was determined using DC Protein Assay (Bio-Rad) and absorbance read using a CLARIOstar plate reader following manufacturer's instructions. Samples with equal protein content were boiled in 4X SDS gel loading buffer for 10 min. Proteins were separated by 10%, 12.5%, or 15% SDS-polyacrylamide gel electrophoresis and transferred to PVDF membranes using Trans-Blot Turbo RTA Mini […] LF PVDF Transfer Kit (Bio-Rad). Membranes were incubated for 1 h at room temperature with blocking buffer, followed by incubating overnight at 4° C. with primary antibodies. After washing in TBST, the secondary antibodies were incubated with the membranes at room temperature for 1 h. The membranes were washed with TBST for three times and visualized on a Bio-Rad ChemiDoc MP Imaging System with Clarity Max Western ECL substrate (Bio-Rad) or SuperSignal West Femto Chemiluminescent substrate proprietary luminol and peroxide solution kit (Thermo Scientific Pierce)."}, "H3.3-FKBP12^F36V [2]": {"biological_target": "T1, H3.3-FKBP12^F36V", "assay": "Quantitative proteomic (TMT MS) analysis of H3.3 acetylation", "details": "625 nM AceTAG-1 vs DMSO, FIG. 5A", "experimental": "Sample preparation: Cells were split in 10 cm dishes in indicated media. The probes were added once the cells grew to 60%-70% confluency and incubated for indicated time. The cells were harvested and washed with cold DPBS twice. The pelleted cells were lysed in 1 mL lysis buffer, containing 10 mM Tris pH 7.5, 300 mM NaCl, 0.1% (v/v) NP40, 5 mM sodium butyrate, 20 mM Nicotinamide, and 1X Halt Protease Inhibitor, followed by centrifuging for 5 min at 1,000 g at 4° C. The pellets were resuspended in benzonase buffer, containing 50 mM Tris pH 7.5, 300 mM NaCl, 0.5% NP40, and 2.5 mM MgCl2. Protein concentration was normalized by DC Protein Assay (Bio-Rad) and equal amount of protein was subjected to 50 U/100 ml benzonase nuclease (Millipore Sigma) treatment.\nSamples with benzonase were incubated on ice for 30 min and centrifuged at 300 g for 3 min at 4° C. to obtain soluble chromatin fraction. Samples were diluted with dilution buffer, containing 50 mM Tris pH 7.5, 300 mM NaCl, 0.5% NP40, and 15 mM EDTA to quench the benzonase activity. Protein concentration was normalized again by DC Protein Assay (Bio-Rad) and equal amount of protein was used for HA-tag protein enrichment as described above. The beads were washed with lysis buffer and DPBS and incubated with 8 M urea and boiled in 4X SDS gel loading buffer at 95° C. for 15 min. […]"}, "[3]": {"test_system": "T2, FKBP12^F36V-RelA (Homo sapiens, F37V)", "T2 construct": "expressed in transfected cells", "T2 sequence (P62942 2-108 F37V limits assumed)": "as the sequence (P62942 2-108 F37V limits assumed) above", "T2 sequence (Q09472 2-2414 limits assumed, stated change not applied, further chain)": "as the sequence (Q09472 2-2414 limits assumed, stated change not applied) above", "assay": "Immunoblot analysis of FKBP12^F36V-RelA acetylation in RelA-/- HeLa cells", "experimental": "as §1, §2"}},
  "data": [
    {"smiles": "CC[C@H](C(=O)N1CCCC[C@H]1C(=O)O[C@H](CCc1ccc(OC)c(OC)c1)c1cccc(OCC(=O)NCCOCCOCCC(=O)NCCOc2ccc(CCc3nc4cc(-c5c(C)noc5C)ccc4n3CCN3CCOCC3)cc2)c1)c1cc(OC)c(OC)c(OC)c1", "note": "[AceTAG-1, (R)-3-(3,4-dimethoxyphenyl)-1-(3-((15-(4-(2-(5-(3,5-dimethylisoxazol-4-yl)-1-(2-morpholinoethyl)-1H-benzo[d]imidazol-2-yl)ethyl)phenoxy)-2,12-dioxo-6,9-dioxa-3,13-diazapentadecyl)oxy)phenyl)propyl (S)-1-((S)-2-(3,4,5-trimethoxyphenyl)butanoyl)piperidine-2-carboxylate]", "values": [
      {"measurement": "treatment time after which H3.3-FKBP12^F36V acetylation significantly increased", "setting": "H3.3-FKBP12^F36V [1]; 625 nM AceTAG-1, FIG. 4E", "value": 5, "unit": "min"},
      {"measurement": "acetylation level at high concentration (hook effect)", "setting": "H3.3-FKBP12^F36V [1]; 50 μM AceTAG-1", "value": "loss of acetylation level"},
      {"measurement": "K18 acetylation, comparison of analogs", "setting": "H3.3-FKBP12^F36V [1]; FIG. 9B", "value": "modestly higher levels of acetylation relative to the other analogs"},
      {"measurement": "acetylation of H3.3", "setting": "H3.3-FKBP12^F36V [1]; HeLa cells, FIG. 8", "value": "significant acetylation of H3.3"},
      {"measurement": "H3.3 acetylation at lysine 18, 23, and 27", "setting": "H3.3-FKBP12^F36V [1]; increasing concentrations, 2 hr, FIG. 4B", "value": "dose-dependent increase"},
      {"measurement": "H3.3 acetylation at lysine 9, 14, or 79", "setting": "H3.3-FKBP12^F36V [1]; increasing concentrations, 2 hr, FIG. 4C", "value": "not lysine 9, 14, or 79"},
      {"measurement": "time for H3.3 K18 acetylation to reach near basal levels after compound removal", "setting": "H3.3-FKBP12^F36V [1]; washout, FIG. 4F", "value": "≤ 2", "unit": "h"},
      {"measurement": "acetylation at K18, K23, and K27 by quantitative MS", "setting": "H3.3-FKBP12^F36V [2]", "value": "substantial increases"},
      {"measurement": "acetylation at other identified lysines on H3.3 by quantitative MS", "setting": "H3.3-FKBP12^F36V [2]", "value": "no acetylation"},
      {"measurement": "RelA acetylation at higher AceTAG-1 concentrations", "setting": "[3]; FIG. 6A", "value": "apparent acetylation autoinhibition"},
      {"measurement": "RelA acetylation at neighboring K314/315", "setting": "[3]; FIG. 9D", "value": "minimal effects"},
      {"measurement": "RelA acetylation at K310", "setting": "[3]; indicated doses, 2 hr, FIG. 6A", "value": "dose-dependent acetylation"}
    ]}
  ]
}
